In PubChem BioAssay (NCI):
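48-hour exposure; five concentrations; linearly interpolated endpoints. TGI: concentration producing complete growth inhibition.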

How the values were obtained:
Test in all cases: inhibition of tumour cell growth, NCI panel, 48 h
[1] = tested on: BT-549 breast
[2] = tested on: NCI/ADR-RES ovarian
[3] = tested on: A549 NSCLC
[4] = tested on: HCT-116 colon
[5] = tested on: HCT-15 colon
[6] = tested on: HT29 colon
[7] = tested on: NCI-H522 lung
[8] = tested on: UACC-62 melanoma
[9] = tested on: SNB-19 CNS
[10] = tested on: MDA-N
[11] = tested on: OVCAR-3 ovarian
[12] = tested on: HOP-92 NSCLC
[13] = tested on: OVCAR-5 ovarian
[14] = tested on: SR leukemia
[15] = tested on: K-562 leukemia
[16] = tested on: HCC-2998 colon
[17] = tested on: SF-268 CNS
[18] = tested on: SW-620 colon
[19] = tested on: MALME-3M melanoma
[20] = tested on: M14 melanoma
[21] = tested on: OVCAR-8 ovarian
[22] = tested on: NCI-H226 lung
[23] = tested on: SF-539 CNS
[24] = tested on: MOLT-4 leukemia
[25] = tested on: PC-3 prostate
[26] = tested on: IGROV1 ovarian
[27] = tested on: SK-MEL-5 melanoma
[28] = tested on: HOP-62 NSCLC
[29] = tested on: LOX IMVI melanoma
[30] = tested on: SK-MEL-2 melanoma
[31] = tested on: HL-60(TB) leukemia
[32] = tested on: T-47D breast
[33] = tested on: MDA-MB-435
[34] = tested on: SNB-75 CNS
[35] = tested on: TK-10 renal
[36] = tested on: OVCAR-4 ovarian
[37] = tested on: HS 578T breast
[38] = tested on: UACC-257 melanoma
[39] = tested on: ACHN renal
[40] = tested on: NCI-H23 lung
[41] = tested on: SK-OV-3 ovarian
[42] = tested on: RPMI-8226 leukemia
[43] = tested on: SN12C renal
[44] = tested on: MDA-MB-231 breast
[45] = tested on: KM12 colon
[46] = tested on: COLO 205 colon
[47] = tested on: U251 CNS
[48] = tested on: 786-0 renal
[49] = tested on: DU-145 prostate
[50] = tested on: MCF7 breast
[51] = tested on: NCI-H460 lung
[52] = tested on: UO-31 renal
[53] = tested on: SF-295 CNS
[54] = tested on: CAKI-1 renal
[55] = tested on: SK-MEL-28 melanoma
[56] = tested on: RXF 393 renal

Which results are given for `NNC(=O)c1cc(Cl)ccc1NC(=O)C12CC3CC(CC(C3)C1)C2`?
TGI [1]: > 100 µM; TGI [2]: > 100 µM; TGI [3]: 48.2 µM; TGI [4]: 85.5 µM; TGI [5]: > 100 µM; TGI [6]: 48 µM; TGI [7]: > 100 µM; TGI [8]: > 100 µM; TGI [9]: 43.1 µM; TGI [10]: 70.5 µM; TGI [11]: > 100 µM; TGI [12]: > 100 µM; TGI [13]: 53.9 µM; TGI [14]: 88.3 µM; TGI [15]: > 100 µM; TGI [16]: 65 µM; TGI [17]: 89.5 µM; TGI [18]: > 100 µM; TGI [19]: 68.6 µM; TGI [20]: 31.8 µM; TGI [21]: > 100 µM; TGI [22]: > 100 µM; TGI [23]: > 100 µM; TGI [24]: > 100 µM; TGI [25]: > 100 µM; TGI [26]: > 100 µM; TGI [27]: 76.5 µM; TGI [28]: > 100 µM; TGI [29]: > 100 µM; TGI [30]: > 100 µM; TGI [31]: 94.2 µM; TGI [32]: > 100 µM; TGI [33]: > 100 µM; TGI [34]: > 100 µM; TGI [35]: > 100 µM; TGI [36]: > 100 µM; TGI [37]: > 100 µM; TGI [38]: 96.2 µM; TGI [39]: 77.8 µM; TGI [40]: > 100 µM; TGI [41]: > 100 µM; TGI [42]: 69.7 µM; TGI [43]: 62.2 µM; TGI [44]: > 100 µM; TGI [45]: > 100 µM; TGI [46]: > 100 µM; TGI [47]: > 100 µM; TGI [48]: 79.9 µM; TGI [49]: > 100 µM; TGI [50]: > 100 µM; TGI [51]: > 100 µM; TGI [52]: 45.4 µM; TGI [53]: > 100 µM; TGI [54]: > 100 µM; TGI [55]: > 100 µM; TGI [56]: > 100 µM
